According to PubChem BioAssay (NCI):
Where “and” joins values, the source holds several entries; their conditions need not be identical. Equal values may be shown once.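 Values below derive from 48-hour exposures of cells grown in 96-well plates, with endpoints linearly interpolated between the two concentrations bracketing the appropriate inhibition level. At the GI50, growth is halved. TGI: total growth inhibition.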 Where a SMILES comes first, the peptide text is derived from it. The star is where a group is joined. Boc = CC(C)(C)OC(=O)*; Bn = c1ccc(C*)cc1

Tests used:
Test in all cases: growth of human tumour cells (NCI), 48 h
LOX IMVI melanoma = tested on: LOX IMVI melanoma
SF-295 CNS = tested on: SF-295 CNS
SF-268 CNS = tested on: SF-268 CNS
UO-31 renal = tested on: UO-31 renal
SNB-19 CNS = tested on: SNB-19 CNS
OVCAR-8 ovarian = tested on: OVCAR-8 ovarian
786-0 renal = tested on: 786-0 renal
NCI-H23 lung = tested on: NCI-H23 lung
NCI-H226 lung = tested on: NCI-H226 lung
SW-620 colon = tested on: SW-620 colon
CCRF-CEM leukemia = tested on: CCRF-CEM leukemia
RXF 393 renal = tested on: RXF 393 renal
MDA-MB-435 = tested on: MDA-MB-435
A498 renal = tested on: A498 renal

SMILES | TGI (LOX IMVI melanoma) | TGI (SF-295 CNS) | TGI (SF-268 CNS) | TGI (UO-31 renal) | TGI (SNB-19 CNS) | TGI (OVCAR-8 ovarian) | TGI (786-0 renal) | TGI (NCI-H23 lung) | TGI (NCI-H226 lung) | TGI (SW-620 colon) | TGI (CCRF-CEM leukemia) | TGI (RXF 393 renal) | TGI (MDA-MB-435) | TGI (A498 renal) | GI50 (SF-295 CNS) | GI50 (RXF 393 renal)
CCOC(=O)C1=C(c2ccccc2)NC(c2ccccc2)=C(C(=O)OCC)c2c1c(=O)cc[nH]c2=O | > 100 µM | > 100 µM | > 100 µM | > 100 µM | > 100 µM | > 100 µM | > 100 µM | > 100 µM | > 100 µM | > 100 µM | – | – | – | – | – | –
CCN(CC)c1ccc2cc(-c3csc(C)n3)c(=O)oc2c1 | > 100 µM | > 100 µM | > 100 µM | > 100 µM | > 100 µM | – | > 100 µM | – | > 100 µM | > 100 µM | > 100 µM | > 100 µM | > 100 µM | – | – | –
COc1ccc(-c2cc(=O)c3ccc(F)cc3[nH]2)cc1 | > 100 µM | > 100 µM | > 100 µM | > 100 µM | > 100 µM | > 100 µM | > 100 µM | > 100 µM | > 100 µM | > 100 µM | > 100 µM | > 100 µM | – | – | – | –
C=CCN(N=O)C(=O)N(CCCCC(NC(C)=O)C(=O)NCc1ccccc1)Cc1ccccc1 (configuration not stated) | 55.3 µM | > 100 µM | > 100 µM | 91.7 µM | > 100 µM | > 100 µM | > 100 µM | > 100 µM | 60.7 µM | > 100 µM | 80.4 µM | 93.1 µM | – | > 100 µM | – | –
O=C(Nc1ccccc1[N+](=O)[O-])C(=O)C(C(=O)c1ccccc1-c1ccccc1)C1OC(=O)c2ccccc21 (configuration not stated) | 36 µM | 39.3 µM | 41 µM | 29.8 µM | 33.2 µM | 44.1 µM | 28.6 µM | 33.6 µM | 21.3 µM | 36.7 µM | 76.1 µM | 25.9 µM | – | 37.8 µM | – | –
O=C1COc2cc3c(cc2N1)SCCC(=O)N3 | – | > 100 µM | > 100 µM | > 100 µM | > 100 µM | > 100 µM | > 100 µM | > 100 µM | > 100 µM | > 100 µM | > 100 µM | – | – | > 100 µM | – | –
Cc1ccc(S(=O)(=O)NC(=O)NCC(N)=O)cc1 | > 100 µM | > 100 µM | > 100 µM | > 100 µM | > 100 µM | > 100 µM | > 100 µM | > 100 µM | – | > 100 µM | > 100 µM | > 100 µM | – | – | – | –
CCC1(CC)C(=O)NN(C(=O)c2ccc(Cl)cc2)C1=O | > 100 µM | > 100 µM | > 100 µM | > 100 µM | > 100 µM | > 100 µM | > 100 µM | > 100 µM | > 100 µM | > 100 µM | > 100 µM | > 100 µM | > 100 µM | – | – | –
COc1ccc(/C(=C\c2cc(OC)c(OC)c(OC)c2)C(=O)O)cc1 | > 100 µM | 45.5 µM | > 100 µM | 97.5 µM | > 100 µM | > 100 µM | > 100 µM | – | 77.4 µM | > 100 µM | > 100 µM | 39.7 µM | – | 53.3 µM | – | –
CN(C(=O)c1cc2c(s1)sc1c(=O)n(C)c3ccccc3c12)c1ccccc1 | > 100 µM | > 100 µM | – | 24.5 µM | > 100 µM | > 100 µM | > 100 µM | 69.5 µM | > 100 µM | – | > 100 µM | > 100 µM | > 100 µM | – | – | –
O=[N+]([O-])c1cc(Cl)ccc1S(=O)(=O)c1ccc(Cl)cc1[N+](=O)[O-] | 32.5 µM | 29 µM | 29.2 µM | 30.9 µM | 31.4 µM | 29.5 µM | 28.9 µM | 29.2 µM | 25.1 µM | 32.6 µM | > 100 µM | 29.5 µM | – | – | – | –
COC(=O)C(CC(C)C)NC(=O)CNC(=O)C(Cc1ccc(OCc2ccccc2)cc1)NC(=O)C(COCc1ccccc1)NC(=O)OC(C)(C)C (configuration not stated) (Boc-S(Bn)Y(Bn)GL-OMe; configuration not given here) | > 100 µM | > 100 µM | > 100 µM | > 100 µM | > 100 µM | > 100 µM | > 100 µM | > 100 µM | > 100 µM | > 100 µM | – | > 100 µM | > 100 µM | – | – | –
CC(=O)OCC1OC(n2c(=S)n(-c3ccccc3)c(=O)c3cc(Br)ccc32)C(OC(C)=O)C(OC(C)=O)C1OC(C)=O (configuration not stated) | > 100 µM | > 100 µM | > 100 µM | > 100 µM | > 100 µM | > 100 µM | > 100 µM | > 100 µM | > 100 µM | > 100 µM | > 100 µM | > 100 µM | – | > 100 µM | 46.5 µM and > 100 µM | 33.7 µM and > 100 µM
O=c1[nH]cc(COCC(O)CO)c(=O)[nH]1 (configuration not stated) | > 100 µM | > 100 µM | > 100 µM | > 100 µM | > 100 µM | > 100 µM | > 100 µM | > 100 µM | > 100 µM | > 100 µM | > 100 µM | > 100 µM | – | > 100 µM | – | –
Oc1ccc2ccccc2c1NCn1nc(CCCCCCCCc2nn(CNc3c(O)ccc4ccccc34)c(=S)o2)oc1=S | – | > 100 µM | > 100 µM | > 100 µM | > 100 µM | – | > 100 µM | > 100 µM | > 100 µM | > 100 µM | – | – | > 100 µM | > 100 µM | – | –
O=C1CC2(CCNCC2)C(=O)N1N1CCCCC1 | > 100 µM | > 100 µM | > 100 µM | > 100 µM | > 100 µM | > 100 µM | > 100 µM | > 100 µM | > 100 µM | > 100 µM | > 100 µM | > 100 µM | – | > 100 µM | – | –
COC1=CC(=O)c2c(n[nH]c2CCNC(=O)OCc2ccccc2)C1=O | 23.7 µM | 34.9 µM | – | 28.8 µM | 39.8 µM | 44.3 µM | 31.3 µM | 15.5 µM | – | 36.8 µM | – | – | 4 µM | 32.7 µM | – | –
